Measured values: the supplement of paper PMC9912026

Test system: A375_aEGFR2
Experiment: pERK immunofluorescence normalised to no-drug reference (=1); higher = more ERK phosphorylation (less pathway inhibition)
Conditions: drug treatment time 24 h, EGF time 8 h
Protocol: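 A375 CRISPRa-EGFR (A375_aEGFR2) or HT29 cells were treated with two-drug dose combinations (vemurafenib, LY3009120, cobimetinib) for 24 h, then stimulated with EGF (100 ng/mL) or mock medium for 8 h. pERK (T202/Y204) was measured by immunofluorescence as the cytosolic population average, normalised to an untreated no-drug reference of the block (=1). Averages of 2 technical replicates. A375 in 5% FBS, HT29 in 10% FBS.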

CCCS(=O)(=O)Nc1ccc(F)c(C(=O)c2c[nH]c3ncc(-c4ccc(Cl)cc4)cc23)c1F [Vemurafenib] + O=C(c1ccc(F)c(F)c1Nc1ccc(I)cc1F)N1CC(O)([C@@H]2CCCCN2)C1 [Cobimetinib]
pERK immunofluorescence normalised
Conditions	EGF 0 ng/mL	EGF 100 ng/mL
drug A concentration 0 µM, drug B concentration 31.62 pM	1.03	1.05
drug A concentration 0 µM, drug B concentration 0.0001 µM	1	1.07
drug A concentration 0 µM, drug B concentration 0.000316228 µM	1	1.02
drug A concentration 0 µM, drug B concentration 0.001 µM	0.917	1.01
drug A concentration 0 µM, drug B concentration 0.00316228 µM	0.732	0.906
drug A concentration 0 µM, drug B concentration 0.01 µM	0.399	0.695
drug A concentration 0 µM, drug B concentration 0.0316228 µM	0.188	0.526
drug A concentration 0 µM, drug B concentration 0.1 µM	0.147	0.468
drug A concentration 0 µM, drug B concentration 0.316228 µM	0.141	0.347
drug A concentration 0 µM, drug B concentration 1 µM	0.137	0.196
drug A concentration 0.000316228 µM, drug B concentration 0 µM	1.01	1.04
drug A concentration 0.000316228 µM, drug B concentration 31.62 pM	1.01	1.03
drug A concentration 0.000316228 µM, drug B concentration 0.0001 µM	1.01	1.02
drug A concentration 0.000316228 µM, drug B concentration 0.000316228 µM	0.984	1.02
drug A concentration 0.000316228 µM, drug B concentration 0.001 µM	0.915	0.936
drug A concentration 0.000316228 µM, drug B concentration 0.00316228 µM	0.687	0.804
drug A concentration 0.000316228 µM, drug B concentration 0.01 µM	0.383	0.605
drug A concentration 0.000316228 µM, drug B concentration 0.0316228 µM	0.175	0.498
drug A concentration 0.000316228 µM, drug B concentration 0.1 µM	0.152	0.425
drug A concentration 0.000316228 µM, drug B concentration 0.316228 µM	0.138	0.289
drug A concentration 0.000316228 µM, drug B concentration 1 µM	0.14	0.179
drug A concentration 0.001 µM, drug B concentration 0 µM	1.01	1.05
drug A concentration 0.001 µM, drug B concentration 31.62 pM	1.02	1.04
drug A concentration 0.001 µM, drug B concentration 0.0001 µM	1.01	1.02
drug A concentration 0.001 µM, drug B concentration 0.000316228 µM	0.958	1.05
drug A concentration 0.001 µM, drug B concentration 0.001 µM	0.857	0.99
drug A concentration 0.001 µM, drug B concentration 0.00316228 µM	0.631	0.816
drug A concentration 0.001 µM, drug B concentration 0.01 µM	0.328	0.621
drug A concentration 0.001 µM, drug B concentration 0.0316228 µM	0.172	0.518
drug A concentration 0.001 µM, drug B concentration 0.1 µM	0.142	0.443
drug A concentration 0.001 µM, drug B concentration 0.316228 µM	0.139	0.3
drug A concentration 0.001 µM, drug B concentration 1 µM	0.137	0.172
drug A concentration 0.00316228 µM, drug B concentration 0 µM	1.02	1.06
drug A concentration 0.00316228 µM, drug B concentration 31.62 pM	0.976	1.05
drug A concentration 0.00316228 µM, drug B concentration 0.0001 µM	0.987	1.06
drug A concentration 0.00316228 µM, drug B concentration 0.000316228 µM	0.943	0.991
drug A concentration 0.00316228 µM, drug B concentration 0.001 µM	0.874	0.935
drug A concentration 0.00316228 µM, drug B concentration 0.00316228 µM	0.623	0.81
drug A concentration 0.00316228 µM, drug B concentration 0.01 µM	0.306	0.625
drug A concentration 0.00316228 µM, drug B concentration 0.0316228 µM	0.164	0.525
drug A concentration 0.00316228 µM, drug B concentration 0.1 µM	0.149	0.435
drug A concentration 0.00316228 µM, drug B concentration 0.316228 µM	0.141	0.285
drug A concentration 0.00316228 µM, drug B concentration 1 µM	0.138	0.166
drug A concentration 0.01 µM, drug B concentration 0 µM	0.986	1.03
drug A concentration 0.01 µM, drug B concentration 31.62 pM	0.927	1.02
drug A concentration 0.01 µM, drug B concentration 0.0001 µM	0.905	0.991
drug A concentration 0.01 µM, drug B concentration 0.000316228 µM	0.875	1.01
drug A concentration 0.01 µM, drug B concentration 0.001 µM	0.814	0.909
drug A concentration 0.01 µM, drug B concentration 0.00316228 µM	0.534	0.765
drug A concentration 0.01 µM, drug B concentration 0.01 µM	0.292	0.613
drug A concentration 0.01 µM, drug B concentration 0.0316228 µM	0.198	0.503
drug A concentration 0.01 µM, drug B concentration 0.1 µM	0.144	0.417
drug A concentration 0.01 µM, drug B concentration 0.316228 µM	0.139	0.29
drug A concentration 0.01 µM, drug B concentration 1 µM	0.138	0.165
drug A concentration 0.0316228 µM, drug B concentration 0 µM	0.881	1
drug A concentration 0.0316228 µM, drug B concentration 31.62 pM	0.842	0.991
drug A concentration 0.0316228 µM, drug B concentration 0.0001 µM	0.795	0.944
drug A concentration 0.0316228 µM, drug B concentration 0.000316228 µM	0.753	0.892
drug A concentration 0.0316228 µM, drug B concentration 0.001 µM	0.666	0.834
drug A concentration 0.0316228 µM, drug B concentration 0.00316228 µM	0.441	0.692
drug A concentration 0.0316228 µM, drug B concentration 0.01 µM	0.228	0.567
drug A concentration 0.0316228 µM, drug B concentration 0.0316228 µM	0.161	0.495
drug A concentration 0.0316228 µM, drug B concentration 0.1 µM	0.145	0.414
drug A concentration 0.0316228 µM, drug B concentration 0.316228 µM	0.14	0.282
drug A concentration 0.0316228 µM, drug B concentration 1 µM	0.138	0.164
drug A concentration 0.1 µM, drug B concentration 0 µM	0.659	0.851
drug A concentration 0.1 µM, drug B concentration 31.62 pM	0.542	0.79
drug A concentration 0.1 µM, drug B concentration 0.0001 µM	0.539	0.787
drug A concentration 0.1 µM, drug B concentration 0.000316228 µM	0.489	0.774
drug A concentration 0.1 µM, drug B concentration 0.001 µM	0.404	0.672
drug A concentration 0.1 µM, drug B concentration 0.00316228 µM	0.285	0.615
drug A concentration 0.1 µM, drug B concentration 0.01 µM	0.186	0.553
drug A concentration 0.1 µM, drug B concentration 0.0316228 µM	0.149	0.525
drug A concentration 0.1 µM, drug B concentration 0.1 µM	0.146	0.407
drug A concentration 0.1 µM, drug B concentration 0.316228 µM	0.14	0.283
drug A concentration 0.1 µM, drug B concentration 1 µM	0.14	0.161
drug A concentration 0.316228 µM, drug B concentration 0 µM	0.362	0.697
drug A concentration 0.316228 µM, drug B concentration 31.62 pM	0.311	0.647
drug A concentration 0.316228 µM, drug B concentration 0.0001 µM	0.28	0.635
drug A concentration 0.316228 µM, drug B concentration 0.000316228 µM	0.264	0.643
drug A concentration 0.316228 µM, drug B concentration 0.001 µM	0.235	0.6
drug A concentration 0.316228 µM, drug B concentration 0.00316228 µM	0.187	0.584
drug A concentration 0.316228 µM, drug B concentration 0.01 µM	0.161	0.557
drug A concentration 0.316228 µM, drug B concentration 0.0316228 µM	0.146	0.502
drug A concentration 0.316228 µM, drug B concentration 0.1 µM	0.142	0.388
drug A concentration 0.316228 µM, drug B concentration 0.316228 µM	0.139	0.27
drug A concentration 0.316228 µM, drug B concentration 1 µM	0.139	0.157
drug A concentration 1 µM, drug B concentration 0 µM	0.211	0.639
drug A concentration 1 µM, drug B concentration 31.62 pM	0.195	0.623
drug A concentration 1 µM, drug B concentration 0.0001 µM	0.192	0.614
drug A concentration 1 µM, drug B concentration 0.000316228 µM	0.189	0.614
drug A concentration 1 µM, drug B concentration 0.001 µM	0.175	0.603
drug A concentration 1 µM, drug B concentration 0.00316228 µM	0.169	0.615
drug A concentration 1 µM, drug B concentration 0.01 µM	0.147	0.571
drug A concentration 1 µM, drug B concentration 0.0316228 µM	0.142	0.494
drug A concentration 1 µM, drug B concentration 0.1 µM	0.141	0.382
drug A concentration 1 µM, drug B concentration 0.316228 µM	0.138	0.245
drug A concentration 1 µM, drug B concentration 1 µM	0.141	0.153
drug A concentration 3.16228 µM, drug B concentration 0 µM	0.171	0.647
drug A concentration 3.16228 µM, drug B concentration 31.62 pM	0.161	0.666
drug A concentration 3.16228 µM, drug B concentration 0.0001 µM	0.172	0.648
drug A concentration 3.16228 µM, drug B concentration 0.000316228 µM	0.158	0.647
drug A concentration 3.16228 µM, drug B concentration 0.001 µM	0.152	0.635
drug A concentration 3.16228 µM, drug B concentration 0.00316228 µM	0.147	0.614
drug A concentration 3.16228 µM, drug B concentration 0.01 µM	0.146	0.532
drug A concentration 3.16228 µM, drug B concentration 0.0316228 µM	0.14	0.464
drug A concentration 3.16228 µM, drug B concentration 0.1 µM	0.139	0.305
drug A concentration 3.16228 µM, drug B concentration 0.316228 µM	0.139	0.179
drug A concentration 3.16228 µM, drug B concentration 1 µM	0.14	0.138
drug A concentration 10 µM, drug B concentration 0 µM	0.154	0.664
drug A concentration 10 µM, drug B concentration 31.62 pM	0.152	0.616
drug A concentration 10 µM, drug B concentration 0.0001 µM	0.148	0.612
drug A concentration 10 µM, drug B concentration 0.000316228 µM	0.149	0.579
drug A concentration 10 µM, drug B concentration 0.001 µM	0.147	0.584
drug A concentration 10 µM, drug B concentration 0.00316228 µM	0.149	0.546
drug A concentration 10 µM, drug B concentration 0.01 µM	0.147	0.476
drug A concentration 10 µM, drug B concentration 0.0316228 µM	0.141	0.36
drug A concentration 10 µM, drug B concentration 0.1 µM	0.14	0.209
drug A concentration 10 µM, drug B concentration 0.316228 µM	0.141	0.146
drug A concentration 10 µM, drug B concentration 1 µM	0.146	0.138
